In US20250177425A1, “SAIKOSAPONIN C AS COMPOSITION FOR TREATING OR PREVENTING AGE-RELATED VASCULAR DISEASES INCLUDING ARTERIOSCLEROSIS” (AGINGTARGET, INC., priority 2022, published 2025):

Key:
[1] = biological target: T1, NLRP3 inflammasome (Homo sapiens, UniProt Q96P20); experiment: NLRP3 inflammasome activity: IL-1β secretion (Solid Phase Sandwich ELISA); details: PMA-differentiated THP-1 macrophages; 20 μM pretreatment 2 hours, MSU 200 μg/ml 6 hours
[2] = test system: HUVEC; experiment: Mechanism study: SA-β-gal staining with NOS and Sirt1 inhibitors; format: cell-based, human; details: 20 μM pretreatment 2 hours, 33 mM high glucose 72 hours
Method: Similar to Experimental Example 1, a high-fat diet evaluation system at the cellular level was established. Specifically, […], which are vascular endothelial cells, were pretreated with Saikosaponin C at a concentration of 20 μM for 2 hours, and then treated with high glucose at a concentration of 33 mM for 72 hours (for SA-β-gal staining) or 36 hours (for the analysis of enzyme activity of NOS and Sirt1). Then, SA-β-gal staining, NOS enzyme activity, and Sirt1 enzyme activity were analyzed. To analyze whether or not NOS and Sirt1 protein are involved in the anti-vascular aging effect of Saikosaponin C and the relationship between NOS and Sirt1 protein, L-NG-nitro arginine methyl ester (L-NAME) (5 mM), an inhibitor of NOS, and EX-527 (10 μM), an inhibitor of Sirt1 protein, were used. […] The senescence of vascular endothelial cells was assessed through intracellular SA-β-gal staining (FIG. 8A). The activities of NOS (FIG. 8B) and Sirt1 protein (FIG. 8C) were measured using the NOS Activity Assay Kit and the Sirt1 Activity Assay Kit, respectively.

[3] = biological target: T1, NLRP3 inflammasome; experiment: NLRP3 inflammasome activity: caspase-1 cleavage (Western blotting); details: PMA-differentiated THP-1 macrophages; 20 μM pretreatment 2 hours, MSU 200 μg/ml 6 hours
[4] = test system: HPAEC; experiment: Trypan blue staining, viable cell count under high glucose; format: cell-based, human; details: 5 μM and 20 μM pretreatment 2 hours, 33 mM high glucose 1 week, dose-dependent
Method: (§1) Similar to Experimental Example 1, a high-fat diet evaluation system at the cell level was established.
(§2) Specifically, two types of vascular endothelial cells, namely, HUVEC and HPAEC cells, were pretreated with Saikosaponin C at concentrations of 5 μM and 20 μM for 2 hours, and then treated with high glucose at a concentration of 33 mM for 1 week. The number of viable cells was then analyzed by Trypan blue staining. The number of viable cells was based on the number of cells in the control group (none) set to “100”.

[5] = test system: HUVEC; experiment: as above; format: cell-based, human; details: 5 μM and 20 μM pretreatment 2 hours, 33 mM high glucose 1 week, dose-dependent
Method: as §1, §2

[6] = test system: HCAEC; experiment: Monocyte-endothelial cell adhesion caused by TNF-α (Calcein AM-labeled THP-1); format: cell-based, human; details: 5 μM and 20 μM pretreatment 2 hours, TNF-α 20 ng/ml 8 hours, THP-1 monocytes
Method: (§3) Specifically, two types of vascular endothelial cells, namely, HUVEC (human umbilical vein endothelial cells) and HCAEC (human coronary artery endothelial cells), were pretreated with Saikosaponin C at concentrations of 5 μM and 20 μM for 2 hours, and then treated with TNF-α (20 ng/ml) for 8 hours. Then, adhesion of monocyte-vascular endothelial cell and expression of cell adhesion molecules (ICAM-1, VCAM-1) of vascular endothelial cells were observed. […] The adhesion of monocyte-endothelial cells was evaluated by imaging analysis using a confocal microscope and fluorescence analysis using a microplate reader, and expression of adhesion proteins (ICAM-1 and VCAM-1) was evaluated by Western blotting.
(§4) Calcein AM fluorescence was analyzed using a confocal microscope and a microplate reader, and the expression of cell adhesion proteins (ICAM-1, VCAM-1) were evaluated through Western blotting.
(§5) FIGS. 9A and 9B show the results of analysis of monocyte-endothelial cell adhesion in two types of vascular endothelial cells (HUVEC, HCAEC) using a confocal microscope, and FIGS. 9C and 9D show the results of analysis of Calcein AM fluorescence (at an excitation wavelength of 488 nm, and at an emission wavelength of 517 nm) in the same experiment using a microplate reader. […]

[7] = test system: HUVEC; experiment: as above; format: cell-based, human; details: 5 μM and 20 μM pretreatment 2 hours, TNF-α 20 ng/ml 8 hours, THP-1 monocytes
Method: as §3, §4, §5

[8] = test system: AoSMC; experiment: Wound healing and transwell migration assay, PDGF-BB-induced; format: cell-based, human; details: 5 μM and 20 μM pretreatment 2 hours, PDGF-BB 20 ng/ml 24 hours
Method: (§6) Specifically, two types of vascular smooth muscle cells, namely, AoSMC (human aortic smooth muscle cells) and CASMC (human coronary artery smooth muscle cells), were pretreated with Saikosaponin C at concentrations of 5 μM and 20 μM for 2 hours, and then treated with PDGF-BB (20 ng/ml), a platelet-derived growth factor (PDGF), for 24 hours. Then, the proliferation and migration of vascular smooth muscle cells were observed. A wound healing assay was performed to observe the proliferation and migration of vascular smooth muscle cells, and a transwell migration assay was performed to observe the migration ability of vascular smooth muscle cells.
(§7) FIGS. 10A and 10B show the results of evaluating the proliferation and migration of vascular smooth muscle cells (AoSMC, CASMC) through a scratch wound healing assay. FIGS. 10C and 10D show the results of analyzing the cell migration ability of the same cells using a Transwell migration chamber with a pore size of 8.0 μm.

[9] = test system: CASMC; experiment: as above; format: cell-based, human; details: 5 μM and 20 μM pretreatment 2 hours, PDGF-BB 20 ng/ml 24 hours
Method: as §6, §7

[10] = test system: Sirt1 in HPAEC; experiment: Sirt1 activity assay kit and Western blotting (expression, phosphorylation); format: cell-based, human; details: 5 μM and 20 μM pretreatment 2 hours, 33 mM high glucose 36 hours, dose-dependent
Method: (§8) Similar to Experimental Example 1, a high-fat diet evaluation system at the cellular level was established.
(§9) Specifically, two types of vascular endothelial cells, namely, HUVEC and HPAEC cells, were pretreated with Saikosaponin C at concentrations of 5 μM and 20 μM for 2 hours, and then treated with high glucose at a concentration of 33 mM for 36 hours. Then, Sirt1 activity, protein expression and phosphorylation levels were analyzed.
(§10) Sirt1 activity was measured using the Sirt1 Activity Assay Kit (FIG. 7A and FIG. 7B), and Sirt1 protein expression and phosphorylation (Ser27, Ser47) were measured through Western blotting (FIG. 7C and FIG. 7D).

[11] = test system: Sirt1 in HUVEC; experiment: as above; format: cell-based, human; details: 5 μM and 20 μM pretreatment 2 hours, 33 mM high glucose 36 hours, dose-dependent
Method: as §8, §9, §10

T1 sequence (Q96P20 whole entry): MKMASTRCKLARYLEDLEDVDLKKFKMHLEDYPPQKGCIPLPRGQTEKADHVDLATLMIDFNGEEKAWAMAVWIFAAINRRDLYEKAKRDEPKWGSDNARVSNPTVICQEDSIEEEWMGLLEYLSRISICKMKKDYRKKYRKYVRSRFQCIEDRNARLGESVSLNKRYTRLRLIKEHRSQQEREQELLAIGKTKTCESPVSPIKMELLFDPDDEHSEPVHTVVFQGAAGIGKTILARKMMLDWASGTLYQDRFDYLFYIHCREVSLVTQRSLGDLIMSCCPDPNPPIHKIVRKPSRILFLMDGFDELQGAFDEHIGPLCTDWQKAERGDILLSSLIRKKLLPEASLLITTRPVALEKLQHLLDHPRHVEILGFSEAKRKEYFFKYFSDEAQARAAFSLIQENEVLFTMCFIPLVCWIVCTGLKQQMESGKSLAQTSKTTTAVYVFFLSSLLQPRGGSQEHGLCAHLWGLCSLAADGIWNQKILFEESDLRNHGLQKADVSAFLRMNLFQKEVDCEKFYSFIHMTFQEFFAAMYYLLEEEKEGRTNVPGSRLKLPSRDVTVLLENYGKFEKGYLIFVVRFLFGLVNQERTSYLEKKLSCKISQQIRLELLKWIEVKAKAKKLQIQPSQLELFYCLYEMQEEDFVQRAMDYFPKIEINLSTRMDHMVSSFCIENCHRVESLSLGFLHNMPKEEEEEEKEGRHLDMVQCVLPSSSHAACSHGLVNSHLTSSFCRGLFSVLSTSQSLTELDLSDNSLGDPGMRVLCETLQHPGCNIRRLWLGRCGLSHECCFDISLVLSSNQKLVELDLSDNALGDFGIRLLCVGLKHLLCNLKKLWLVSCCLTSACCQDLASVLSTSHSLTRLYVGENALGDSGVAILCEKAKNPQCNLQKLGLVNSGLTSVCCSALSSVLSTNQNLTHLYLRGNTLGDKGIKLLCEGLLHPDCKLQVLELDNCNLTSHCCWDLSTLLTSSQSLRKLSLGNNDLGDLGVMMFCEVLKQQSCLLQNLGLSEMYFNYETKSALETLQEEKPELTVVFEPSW

IL-1β secretion [1]: inhibited
caspase-1 cleavage [3]: inhibited
Structure (SMILES): CC1O[C@@H](O[C@@H]2C(CO[C@@H]3OC(CO)[C@@H](O)C(O)C3O)O[C@@H](O[C@H]3CC[C@]4(C)[C@H]5C=C[C@]67OC[C@@]8(CCC(C)(C)C[C@H]86)[C@@H](O)C[C@@]7(C)[C@]5(C)CC[C@H]4C3(C)C)C(O)C2O)C(O)C(O)[C@H]1O (some centres unmarked) [Saikosaponin C]
high glucose-induced SA-β-gal positive HUVEC cells [2]: reduced
high glucose-induced cell growth inhibition (number of viable cells, Trypan blue) [4]: significantly alleviated
high glucose-induced cell growth inhibition (number of viable cells, Trypan blue) [5]: significantly alleviated
monocyte-endothelial cell adhesion caused by TNF-α [6]: inhibited
monocyte-endothelial cell adhesion caused by TNF-α [7]: inhibited
PDGF-BB-increased proliferation and migration of vascular smooth muscle cells [8]: not inhibited
PDGF-BB-increased proliferation and migration of vascular smooth muscle cells [9]: not inhibited
high glucose-induced decrease in Sirt1 enzyme activity, protein expression, and phosphorylation [10]: significantly alleviated
high glucose-induced decrease in Sirt1 enzyme activity, protein expression, and phosphorylation [11]: significantly alleviated
